Calls of active or inactive are those of the source. The rule behind the calls is not given here.
Key:
[1] = system: Human immunodeficiency virus 1; test: Antiviral activity against Human immunodeficiency virus 1 IIIB infected CEM cells assessed as inhibition of virus-induced giant cell formation after 4 days by microscopic analysis; assay type: functional, organism-based; details: CCRF-CEM, 96 h
WI-38 = test: Antiproliferative activity against Homo sapiens (human) WI38 cells by MTT assay; assay type: cell-based
SW-620 = test: Antiproliferative activity against Homo sapiens (human) SW620 cells by MTT assay; assay type: functional, cell-based
MIA PaCa-2 = test: Antiproliferative activity against Homo sapiens (human) MIAPaCa2 cells by MTT assay; assay type: functional, cell-based
MCF7 = test: Antiproliferative activity against Homo sapiens (human) MCF7 cells by MTT assay; assay type: functional, cell-based
HepG2 = test: Antiproliferative activity against Homo sapiens (human) HepG2 cells by MTT assay; assay type: functional, cell-based
HeLa = test: Antiproliferative activity against Homo sapiens (human) HeLa cells by MTT assay; assay type: functional, cell-based
CCRF-CEM = test: Cytostatic activity against Homo sapiens (human) CEM cells after 72 hr by Coulter counting analysis; assay type: functional, cell-based
MOLT-4 = test: Cytostatic activity against Homo sapiens (human) Molt4/C8 cells after 72 hr by Coulter counting analysis; assay type: functional, cell-based; details: MOLT-4, 72 h
L1210 = test: Cytostatic activity against Mus musculus (mouse) L1210 cells after 48 hr by Coulter counting analysis; assay type: functional, cell-based
Influenza A virus H3N2 = test: Antiviral activity against Influenza A virus H3N2 infected MDCK cells assessed as inhibition of virus-induced cytopathic effect; assay type: functional, organism-based
Influenza B virus = test: Antiviral activity against Influenza B virus infected MDCK cells assessed as inhibition of virus-induced cytopathic effect; assay type: functional, organism-based
Influenza A virus = test: Antiviral activity against Unidentified Influenza A virus ([…]) infected MDCK cells assessed as inhibition of virus-induced cytopathic effect; assay type: functional, organism-based; details: Influenza A virus (H1N1)
[2] = system: Respiratory syncytial virus; test: Antiviral activity against Respiratory syncytial virus infected HeLa cells assessed as inhibition of virus-induced cytopathic effect; assay type: functional, organism-based
Coxsackievirus B4 [3] = test: Antiviral activity against Human coxsackievirus B4 infected HeLa cells assessed as inhibition of virus-induced cytopathic effect; assay type: functional, organism-based
[4] = system: Vesicular stomatitis virus; test: Antiviral activity against Vesicular stomatitis virus infected HeLa cells assessed as inhibition of virus-induced cytopathic effect; assay type: functional, organism-based
Punta Toro virus = test: Antiviral activity against Punta Toro virus infected Vero cells assessed as inhibition of virus-induced cytopathic effect; assay type: functional, organism-based
Coxsackievirus B4 [5] = test: Antiviral activity against Human coxsackievirus B4 infected Vero cells assessed as inhibition of virus-induced cytopathic effect; assay type: functional, organism-based
Sindbis virus = test: Antiviral activity against Sindbis virus infected Vero cells assessed as inhibition of virus-induced cytopathic effect; assay type: functional, organism-based
Reovirus sp. = test: Antiviral activity against Mammalian orthoreovirus 1 infected Vero cells assessed as inhibition of virus-induced cytopathic effect; assay type: functional, organism-based
Human respirovirus 3 = test: Antiviral activity against Human parainfluenza virus 3 infected Vero cells assessed as inhibition of virus-induced cytopathic effect; assay type: functional, organism-based
Human alphaherpesvirus 2 = test: Antiviral activity against Human herpesvirus 2 strain G infected HEL cells assessed as inhibition of virus-induced cytopathic effect; assay type: functional, organism-based
Human alphaherpesvirus 1 = test: Antiviral activity against Human herpesvirus 1 strain KOS infected in HEL cells assessed as inhibition of virus-induced cytopathic effect; assay type: functional, organism-based
[6] = target: Human immunodeficiency virus type 1 reverse transcriptase (Human immunodeficiency virus 1) (UniProt Q72547); test: Inhibition of Human immunodeficiency virus 1 recombinant reverse transcriptase at 500 uM
[7] = system: Human immunodeficiency virus 2; test: Antiviral activity against Human immunodeficiency virus type 2 (ISOLATE ROD) infected CEM cells assessed as inhibition of virus-induced giant cell formation after 4 days by microscopic analysis; assay type: functional, organism-based; details: Human immunodeficiency virus 2, ISOLATE ROD, CCRF-CEM, 96 h

Row | Structure (SMILES) | IC50 (WI-38) [µM] | IC50 (SW-620; Homo sapiens, SW-620) [µM] | IC50 (MIA PaCa-2) [µM] | IC50 (MCF7) [µM] | IC50 (HepG2) [µM] | IC50 (HeLa) [µM] | IC50 (CCRF-CEM) [µM] | Activity (Influenza A virus H3N2) | Activity (Influenza B virus) | Activity (Influenza A virus) | Activity [2] | Activity (Coxsackievirus B4 [3]) | Activity [4] | Activity (Punta Toro virus) | Activity (Coxsackievirus B4 [5]) | Activity (Sindbis virus) | Activity (Reovirus sp.) | Activity (Human respirovirus 3) | Activity (Human alphaherpesvirus 2) | Activity (Human alphaherpesvirus 1) | further results
1 | Cc1cn(C/C=C\CN)c(=O)[nH]c1=O | 54.2 | 54.4 | 93.3 | 49.2 | > 100 | 61.6 | 51 | inactive | inactive | inactive | inactive | inactive | inactive | inactive | inactive | inactive | inactive | inactive | inactive | inactive | EC50 [1]: 29 µM; IC50 (MOLT-4): 44 µM; IC50 (L1210; Mus musculus, L1210, 48 h): 43 µM; inhibition [6]: inactive; EC50 [7]: 41 µM
2 | NC/C=C\Cn1cnc2c(=O)[nH]c(N)nc21 |  |  |  |  |  |  |  | inactive | inactive | inactive | inactive | inactive | inactive | inactive | inactive | inactive | inactive | inactive | inactive | inactive | EC50 [1]: 10 µM; EC50 [7]: 10 µM
3 | NC/C=C\Cn1cnc2c(N)nc(N)nc21 [listing 1 of 3 here] | > 100 | > 100 | > 100 | > 100 | > 100 | > 100 | > 500 |  |  |  |  |  |  |  |  |  |  |  |  |  | IC50 (MOLT-4): > 500 µM; IC50 (L1210; Mus musculus, L1210, 48 h): > 500 µM
4 | Cc1cn(C/C=C\CN)c(=O)nc1N | 63 | 69.2 | > 100 | 67.5 | > 100 | > 100 | 46 | inactive | inactive | inactive | inactive | inactive | inactive | inactive | inactive | inactive | inactive | inactive | inactive | inactive | EC50 [1]: 36 µM; IC50 (MOLT-4): 42 µM; IC50 (L1210; Mus musculus, L1210, 48 h): 45 µM; inhibition [6]: inactive; EC50 [7]: 38 µM
5 | NC/C=C\Cn1ccc(N)nc1=O | 85.2 | 53.2 | > 100 | > 100 | > 100 | > 100 | > 500 | inactive | inactive | inactive | inactive | inactive | inactive | inactive | inactive | inactive | inactive | inactive | inactive | inactive | EC50 [1]: 96 µM; IC50 (MOLT-4): > 500 µM; IC50 (L1210; Mus musculus, L1210, 48 h): > 500 µM; inhibition [6]: inactive; EC50 [7]: 78 µM
6 | NC/C=C\Cn1cnc2c(N)nc(N)nc21 [listing 2 of 3 here] |  |  |  |  |  |  |  | inactive | inactive | inactive | inactive | inactive | inactive | inactive | inactive | inactive | inactive | inactive | inactive | inactive | 
7 | NCCCCn1cnc2c(-n3cccc3)ncnc21 | > 100 | 40.5 | > 100 | > 100 | 74.2 | 10.9 | 115 | inactive | inactive | inactive | inactive | inactive | inactive | inactive | inactive | inactive | inactive | inactive | inactive | inactive | Activity (HeLa): Dose-dependent effect; IC50 (MOLT-4): 140 µM; IC50 (L1210; Mus musculus, L1210, 48 h): 91 µM
8 | NC/C=C\Cn1cnc2c(N)nc(N)nc21 [listing 3 of 3 here] |  |  |  |  |  |  |  |  |  |  |  |  |  |  |  |  |  |  |  |  | IC50 (SW-620; sw-620): 98.8 µM; IC50 (L1210; l1210): 350 µM
9 | NC/C=C\Cn1cnc2c(N)ncnc21 | 69.1 | 77.1 | > 100 | > 100 | > 100 | > 100 | 340 | inactive | inactive | inactive | inactive | inactive | inactive | inactive | inactive | inactive | inactive | inactive | inactive | inactive | IC50 (MOLT-4): 248 µM; IC50 (L1210; Mus musculus, L1210, 48 h): 276 µM
10 | NCCCCn1cnc2c(N)nc(N)nc21 |  |  |  |  |  |  |  | inactive | inactive | inactive | inactive | inactive | inactive | inactive | inactive | inactive | inactive | inactive | inactive | inactive | 
11 | NC/C=C\Cn1ccc(=O)[nH]c1=O |  |  |  |  |  |  |  | inactive | inactive | inactive | inactive | inactive | inactive | inactive | inactive | inactive | inactive | inactive | inactive | inactive | 
12 | NC/C=C\Cn1cnc2c(Cl)nc(N)nc21 | > 100 | > 100 | > 100 | > 100 | > 100 | 54 | > 500 | inactive | inactive | inactive | inactive | inactive | inactive | inactive | inactive | inactive | inactive | inactive | inactive | inactive | EC50 [1]: ≥ 100 µM; Activity (HeLa): Dose-dependent effect; IC50 (MOLT-4): > 500 µM; IC50 (L1210; Mus musculus, L1210, 48 h): > 500 µM; EC50 [7]: ≥ 100 µM
13 | NC/C=C\Cn1cnc2c(=O)[nH]cnc21 | > 100 | > 100 | > 100 | > 100 | > 100 | 69.1 | > 500 | inactive | inactive | inactive | inactive | inactive | inactive | inactive | inactive | inactive | inactive | inactive | inactive | inactive | EC50 [1]: ≥ 100 µM; IC50 (MOLT-4): > 500 µM; IC50 (L1210; Mus musculus, L1210, 48 h): 114 µM; EC50 [7]: ≥ 100 µM

— ChEMBL document CHEMBL3046040, “Synthesis, cytostatic and anti-viral activity evaluation of the novel acyclic nucleoside analogues containing a sterically constrained (Z)-4-amino-2-butenyl moiety” (Med Chem Res, 2011)
